What follows are compounds tested against 5-HT2AR (Homo sapiens, UniProt P28223) (assay: Inhibition of 5-HT). Settings: inhibition of 1 μM 5-HT-evoked Cai2+ release; compared with parent (+)-M100907.
Type: cell-based

5-HT2AR, sequence (P28223 whole entry): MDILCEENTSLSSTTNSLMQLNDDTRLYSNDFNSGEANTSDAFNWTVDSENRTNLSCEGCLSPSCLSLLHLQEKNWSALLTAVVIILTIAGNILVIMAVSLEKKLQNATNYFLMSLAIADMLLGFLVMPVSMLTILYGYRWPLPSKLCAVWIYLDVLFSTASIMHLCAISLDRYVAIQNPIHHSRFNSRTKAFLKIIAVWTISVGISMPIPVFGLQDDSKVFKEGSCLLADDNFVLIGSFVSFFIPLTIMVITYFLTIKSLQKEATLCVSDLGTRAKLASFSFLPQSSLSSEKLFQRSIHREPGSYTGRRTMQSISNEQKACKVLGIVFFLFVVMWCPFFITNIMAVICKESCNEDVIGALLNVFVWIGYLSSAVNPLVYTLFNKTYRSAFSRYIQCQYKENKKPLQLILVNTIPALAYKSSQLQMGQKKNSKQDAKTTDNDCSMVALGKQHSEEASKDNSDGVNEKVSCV

SMILES | antagonist activity / potency in words
COc1c(OCCOCCN=[N+]=[N-])cccc1[C@H](O)C1CCN(CCc2ccc(F)cc2)CC1 [Compound 4] | retained antagonist activity
C#CCOCCOCCOc1cccc([C@H](O)C2CCN(CCc3ccc(F)cc3)CC2)c1OC [Compound 5] | slightly lower potency
COc1c(OCCOCCOc2cn(CCOCCOc3cccc([C@H](O)C4CCN(CCc5ccc(F)cc5)CC4)c3OC)nn2)cccc1[C@H](O)C1CCN(CCc2ccc(F)cc2)CC1 [Compound 15] | slightly lower potency

Source: paper PMC6613932 (Bioorganic & medicinal chemistry letters, 2018)
